The NIST ThermoML archive (doi:10.1016/j.tca.2014.03.019)

Columns and labels:
[1] = Molar enthalpy of transition or fusion; conditions: Crystal; DSC
[2] = Crystal; for vapor or sublimation pressure: Transpiration method; for Normal melting temperature: DTA

CC(=O)Nc1cccc(C(=O)O)c1 [3-(acetylamino)benzoic acid]
Conditions | Molar enthalpy of transition or fusion [kJ/mol] | Normal melting temperature [°C]
[1] | 39.4 | –
[2] | – | 245.1

[2]
Conditions | vapor or sublimation pressure [kPa]
407.2 K | 2.67e-05
410.9 K | 4.67e-05
414.1 K | 5.62e-05
416.6 K | 6.27e-05
420.9 K | 0.000102
423.6 K | 0.000114
426.8 K | 0.000148
427.3 K | 0.000187
430.6 K | 0.000246
433 K | 0.000315
434.8 K | 0.000374
436.1 K | 0.000403
440.1 K | 0.00051
442.9 K | 0.000663

CC(=O)Nc1ccccc1C(=O)O [2-acetamidobenzoic acid]
Conditions | Molar enthalpy of transition or fusion [kJ/mol] | Normal melting temperature [°C]
[1] | 49.4 | –
[2] | – | 185.2

[2]
Conditions | vapor or sublimation pressure [kPa]
344.7 K | 1.66e-05
351.3 K | 3.37e-05
357.3 K | 5.58e-05
363.5 K | 0.000111
363.8 K | 0.000116
366.2 K | 0.000138
369.7 K | 0.000235
371 K | 0.000243
373.5 K | 0.000289
377.4 K | 0.000555
380 K | 0.000571
383.8 K | 0.000948
387.2 K | 0.00117
390.4 K | 0.00152
393.5 K | 0.00198

CC(=O)Nc1ccc(C(=O)O)cc1 [4-acetamidobenzoic acid]
Conditions | Molar enthalpy of transition or fusion [kJ/mol] | Normal melting temperature [°C]
[1] | 34.2 | –
[2] | – | 262.1

[2]
Conditions | vapor or sublimation pressure [kPa]
395 K | 1.43e-05
398.2 K | 2.1e-05
398.5 K | 2.09e-05
402.5 K | 2.92e-05
405.5 K | 3.48e-05
409.1 K | 5.24e-05
412.1 K | 6.72e-05
415.3 K | 0.0001
418.9 K | 0.000126
422.1 K | 0.000193
425 K | 0.000227
428.5 K | 0.000352
431.7 K | 0.000393
436.2 K | 0.000775
440 K | 0.000934
